Laboratory results reported in publication PMC6261651, “A functional proteomics platform to reveal the sequence determinants of lysine methyltransferase substrate selectivity” (Science Advances, 2018).
Entries after “also recorded” stand apart in the source; their conditions may differ. Where no end group is shown, it is not given here. [ ]: non-standard residue; d: D form. Nle = CCCC[C@H](N)C(=O)O

Columns and labels:
Format in all cases: biochemical
SMYD2 [1] = molecular target: T1, SMYD2 (Homo sapiens, UniProt Q9NRG4); assay: SPA kinetic analysis of SMYD2 methylation of peptide substrates; conditions: 200 nM SMYD2, 50 μM SAM, varied substrate concentration, mean of three independent measurements (Fig. 4D)
T1 construct: SMYD2 (full length) was expressed as a N-terminal glutathione S-transferase (GST) fusion; GST (N); made in house; host or cells: Escherichia coli BL21(DE3)
T1 sequence (Q9NRG4 whole entry, the tested form may be a part): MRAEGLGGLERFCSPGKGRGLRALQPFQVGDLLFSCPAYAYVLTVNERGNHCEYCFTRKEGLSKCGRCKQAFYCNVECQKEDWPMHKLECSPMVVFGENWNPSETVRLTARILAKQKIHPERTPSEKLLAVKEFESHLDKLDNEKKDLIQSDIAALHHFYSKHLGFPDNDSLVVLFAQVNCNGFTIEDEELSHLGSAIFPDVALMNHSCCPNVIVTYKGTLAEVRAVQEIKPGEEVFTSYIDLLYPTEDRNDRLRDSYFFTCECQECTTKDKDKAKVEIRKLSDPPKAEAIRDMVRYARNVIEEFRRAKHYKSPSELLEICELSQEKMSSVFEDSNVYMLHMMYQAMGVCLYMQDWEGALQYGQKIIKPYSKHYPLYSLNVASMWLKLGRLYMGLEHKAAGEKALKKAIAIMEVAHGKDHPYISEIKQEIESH
Description: (§1) Reactions (10 μl) containing 1 μg of KMT, 1 μg of a K-OPL set, and 1 μCi of ^3H-SAM (PerkinElmer) in KMT reaction buffer [50 mM tris (pH 8.8), 5 mM MgCl2, and 4 mM dithiothreitol] were incubated for 1 hour at room temperature. Reactions were stopped by adding trifluoracetic acid to a final concentration of 0.5%, neutralized by diluting with 135 μl of 50 mM NaHCO3, and transferred to streptavidin-coated FlashPlates (PerkinElmer). Plates were incubated for 15 min, sealed, and counted in a MicroBeta2 liquid scintillation counter (PerkinElmer) for 1 min per sample. Initial rate measure and kinetic analysis were performed using the same procedure with 200 nM SMYD2, 50 μM SAM (5:1 cold/hot ratio), and 80 μM substrate (initial rate measurements) or as indicated (kinetic analysis). IC50 measurements were performed using the same conditions with 5 μM PER2 peptide as a substrate.

SMYD2 [2] = molecular target: T1, SMYD2; assay: In vitro SMYD2 methyltransferase assay with protein substrates (SDS-PAGE, 3H fluorography); conditions: 1 μg of KMT, 1 μg of substrate, 1 μCi 3H-SAM, 1 hour, room temperature; 3H fluorography (Fig. 5A, 5B, fig. S5A)
Description: Reactions (10 μl) containing 1 μg of KMT, 1 μg of the indicated substrates, and 1 μCi of ^3H-SAM (PerkinElmer) in KMT reaction buffer were incubated for 1 hour at room temperature. Reactions were quenched by the addition of SDS loading buffer and resolved by SDS–polyacrylamide gel electrophoresis. Following the detection of total protein by Coomassie staining, gels were treated with EN^3HANCE (PerkinElmer) and dried, and methylated proteins were detected by autoradiography.
Fig. S5. In vitro SMYD2 assays with protein substrates. (A) Coomassie stained SDS-PAGE of recombinant control (HIS-GST), known substrates (p53, MAPKAPK3), and predicted substrates (PRDM11, GDAP1, MAP3K12) in the absence and presence of SMYD2. Reactions were carried out with 1 μg of SMYD2, 1 μg of substrate, and 1 μCi of 3H-SAM. 3H fluorograph shown below after 24 hour exposure at -80 °C (B) Cartoon repre- sentation of ZPK (PDB:
5CEN) showing plus and minus three amino acids from the target lysine (PO) as stick models.
(1 picture or pasted object on this page, not shown here)

SMYD2 [3] = molecular target: T1, SMYD2; assay: SPA initial rate measurements with peptide substrates, SMYD2; conditions: 200 nM SMYD2, 50 μM SAM (5:1 cold/hot), 80 μM substrate, room temperature, mean of three independent measurements (Fig. 2F), text gives words only
Excerpt: To measure enzyme activity, we developed a scintillation proximity assay (SPA), which quantified the transfer of tritium-labeled methyl groups from the cofactor and methyl donor S-adenosylmethionine (SAM) to each K-OPL set (Fig. 1B). SPAs permit sensitive analysis of enzymatic activity and are advantageous when the reaction product is unknown. This platform enabled us to rapidly determine a KMT’s preference for any amino acid (except cysteine) at any position ± three positions from a target lysine.
as §1

SMYD2 [4] = molecular target: T1, SMYD2; assay: IC50 measurements of Nle peptide inhibitors of SMYD2 using PER2 as a substrate (SPA); conditions: 200 nM SMYD2, 50 μM SAM, 5 μM PER2 peptide as substrate, mean of three (Fig. 4E), IC50 values not given
Description: as §1

SMYD2 [5] = molecular target: T1, SMYD2; assay: MALDI-TOF-MS and MS/MS analysis of methylation products, SMYD2; conditions: 200 nM KMT, 80 μM peptide, 50 μM SAM, 1 hour, room temperature; MALDI-TOF-MS (Fig. 3C)
Description: (§2) For MS experiments, 200 nM KMT, 80 μM peptide, and 50 μM SAM were incubated in KMT reaction buffer for 1 hour at room temperature. Reactions were quenched with 0.5% trifluoroacetic acid and analyzed by MS. KMT-reacted samples were deposited on a MALDI target plate (4 μl per spot) and mixed with 1 μl of matrix solution (α-cyano-4-hydroxycinnamic acid in 50% acetonitrile). MALDI-TOF-MS and MS/MS (positive ion mode at 1 kV) spectra were collected using SCIEX TOF/TOF 5800 MALDI MS spectrometer. The peptide fragmentation modeling and peak assignments were done using the Peptide Sequence Fragmentation Modeling tool (https://omics.pnl.gov/software/molecular-weight-calculator).

SET7/9 [6] = molecular target: T2, SET7/9 (Homo sapiens, UniProt Q8WTS6); assay: MALDI-TOF-MS and MS/MS analysis of methylation products, SET7/9; conditions: 200 nM KMT, 80 μM peptide, 50 μM SAM, 1 hour, room temperature; MALDI-TOF-MS (Fig. 3B)
T2 construct: purchased New England BioLabs M0223
T2 sequence (Q8WTS6 1-366): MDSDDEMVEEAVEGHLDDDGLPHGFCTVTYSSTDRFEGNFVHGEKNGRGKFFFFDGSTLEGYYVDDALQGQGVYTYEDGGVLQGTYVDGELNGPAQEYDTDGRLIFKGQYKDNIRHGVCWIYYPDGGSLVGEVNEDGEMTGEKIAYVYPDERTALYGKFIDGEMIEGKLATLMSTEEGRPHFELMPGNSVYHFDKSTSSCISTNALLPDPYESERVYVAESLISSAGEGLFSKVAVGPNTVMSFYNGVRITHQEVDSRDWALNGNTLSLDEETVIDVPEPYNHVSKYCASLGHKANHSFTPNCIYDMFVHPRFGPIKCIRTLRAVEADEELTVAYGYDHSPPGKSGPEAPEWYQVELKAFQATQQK
Description: as §2

SET7/9 [7] = molecular target: T2, SET7/9; assay: SPA initial rate measurements with peptide substrates, SET7/9; conditions: 3H-SAM, 50 μM SAM (5:1 cold/hot), 80 μM substrate, room temperature, mean of three independent measurements (Fig. 2E), text gives words only
G9a [8] = molecular target: T3, G9a (Homo sapiens, UniProt Q96KQ7); assay: SPA initial rate measurements with peptide substrates, G9a; conditions: 3H-SAM, 50 μM SAM (5:1 cold/hot), 80 μM substrate, room temperature, mean of three independent measurements (Fig. 2D), text gives words only
T3 construct: G9a (amino acids 913 to 1210) was produced as a 6XHis N-terminal fusion; 6XHis (N); made in house; host or cells: Escherichia coli BL21(DE3)
T3 sequence (Q96KQ7 913-1210): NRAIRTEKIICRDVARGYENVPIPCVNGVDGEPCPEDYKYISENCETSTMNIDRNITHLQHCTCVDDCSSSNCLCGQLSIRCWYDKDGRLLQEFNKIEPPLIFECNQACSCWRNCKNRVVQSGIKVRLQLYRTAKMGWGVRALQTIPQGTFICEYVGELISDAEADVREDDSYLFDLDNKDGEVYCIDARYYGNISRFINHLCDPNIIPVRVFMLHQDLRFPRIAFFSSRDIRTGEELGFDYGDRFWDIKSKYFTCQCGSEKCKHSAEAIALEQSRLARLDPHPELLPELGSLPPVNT

G9a [9] = molecular target: T3, G9a; assay: MALDI-TOF-MS and MS/MS analysis of methylation products, G9a; conditions: 200 nM KMT, 80 μM peptide, 50 μM SAM, 1 hour, room temperature; MALDI-TOF-MS (Fig. 3A)
Description: as §2

DKLKSKR [PER2 derivative peptide with aspartic acid in the P−3 position]
kinetic model of SMYD2 methylation (SMYD2 [1]): followed a classical MM model

PRDM11 K89D: PRDM11 mutant predicted to render this SMYD2 substrate deficient
methylation of recombinant protein substrate by SMYD2 (SMYD2 [2]): reduced compared to the wild-type PRDM11

PRDM11: recombinant PRDM11 (amino acids 79 to 314)
methylation of recombinant protein substrate by SMYD2 (SMYD2 [2]): methylated by SMYD2; also recorded: at least as efficiently as the known substrate, p53

RKDKSKR [PER2 derivative peptide with aspartic acid in the P−1 position]
rate of methylation by SMYD2 (substrate efficiency) (SMYD2 [3]): equally poor SMYD2 substrates

RKD[Nle]SKR [Nle derivative of RKDKSKR]
inhibition of SMYD2 methylation of PER2 (SMYD2 [4]): less effective

RKLKEKR [PER2 derivative peptide with glutamic acid in the P+1 position]
rate of methylation by SMYD2 (substrate efficiency) (SMYD2 [3]): equally poor SMYD2 substrates

RKLKSKR [PER2 K798, peptide corresponding to lysine 798 of PER2; SMYD2 substrate]
methylation products with SMYD2 (SMYD2 [5]): addition of a single methyl group
rate of methylation by SMYD2 (substrate efficiency) (SMYD2 [3]): more efficient substrate than peptides corresponding to previously reported SMYD2 substrates p53 K370 and MAPKAPK3 K355

RRSKRRK [SCN5A K477, optimal SET7/9 substrate predicted by K-OPL]
methylation products with SET7/9 (SET7/9 [6]): addition of a single methyl group
rate of methylation by SET7/9 (substrate efficiency) (SET7/9 [7]): methylated at a faster rate than p53 K372

SHLKSKK [p53 K370, peptide corresponding to previously reported SMYD2 substrate p53 K370, reference compound]
kinetic model of SMYD2 methylation (SMYD2 [1]): standard Michaelis-Menten (MM) model
kinetic model of SMYD2 methylation (SMYD2 [1]; listed as p53): classical MM kinetics

TARKRFK [optimal G9a peptide substrate derived from the K-OPL profile]
rate of methylation by G9a (substrate efficiency) (G9a [8]): more efficient substrate than H3K9 or WIZ
methylation products with G9a (G9a [9]): both monomethyl and dimethyl products

WKLKSKR [optimal K-OPL-derived SMYD2 substrate, not found in any human protein]
rate of methylation by SMYD2 (substrate efficiency) (SMYD2 [3]): increased the rate of methylation
kinetic model of SMYD2 methylation (SMYD2 [1]): consistent with substrate inhibition
